Measurements taken from ChEMBL document CHEMBL1201862, “PubChem BioAssay data set” (2004).
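Where inhibition never reached the appropriate level, the endpoint shown equals the highest concentration tested. Otherwise, values were interpolated linearly from a five-concentration, 48-hour dose response in 96-well plates. GI50 marks 50% less growth.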 Activity calls are given as the source filed them. Cut-off read from the data, not from the text of the source: active = GI50 up to about 1.1 µM and inactive = higher.

How the values were obtained:
Assay in all cases: NCI anticancer screen, dose series, 48 h
786-0 = tested on: 786-0
A498 = tested on: A498
A549 = tested on: A549
ACHN = tested on: ACHN
CAKI-1 = tested on: CAKI-1
CCRF-CEM = tested on: CCRF-CEM
COLO 205 = tested on: COLO 205
DU-145 = tested on: DU-145
EKVX = tested on: EKVX
HCC 2998 = tested on: HCC 2998
HCT-116 = tested on: HCT-116
HCT-15 = tested on: HCT-15
HL-60 = tested on: HL-60
HOP-62 = tested on: HOP-62
HOP-92 = tested on: HOP-92
HT-29 = tested on: HT-29
Hs-578T = tested on: Hs-578T
IGROV-1 = tested on: IGROV-1
K562 = tested on: K562
KM12 = tested on: KM12
LOX IMVI = tested on: LOX IMVI
M14 = tested on: M14
MCF7 = tested on: MCF7
MDA-MB-231 = tested on: MDA-MB-231
MDA-MB-435 = tested on: MDA-MB-435
MDA-N = tested on: MDA-N
MOLT-4 = tested on: MOLT-4
Malme-3M = tested on: Malme-3M
NCI-H226 = tested on: NCI-H226
NCI-H23 = tested on: NCI-H23
NCI-H460 = tested on: NCI-H460
NCI-H522 = tested on: NCI-H522
NCI/ADR-RES = tested on: NCI/ADR-RES
OVCAR-3 = tested on: OVCAR-3
OVCAR-4 = tested on: OVCAR-4
OVCAR-5 = tested on: OVCAR-5
OVCAR-8 = tested on: OVCAR-8
PC-3 = tested on: PC-3
RPMI-8226 = tested on: RPMI-8226
RXF 393 = tested on: RXF 393
SF-268 = tested on: SF-268
SF-295 = tested on: SF-295
SF-539 = tested on: SF-539
SK-MEL-28 = tested on: SK-MEL-28
SK-MEL-2 = tested on: SK-MEL-2
SK-MEL-5 = tested on: SK-MEL-5
SK-OV-3 = tested on: SK-OV-3
SN12C = tested on: SN12C
SNB-19 = tested on: SNB-19
SNB-75 = tested on: SNB-75
SR = tested on: SR
SW-620 = tested on: SW-620
T47D = tested on: T47D
TK-10 = tested on: TK-10
U-251 = tested on: U-251
UACC-257 = tested on: UACC-257
UACC-62 = tested on: UACC-62
UO-31 = tested on: UO-31
BT-549 = tested on: BT-549

CCN1C(=O)/C(=C\Nc2ccccc2)S/C1=N/Nc1ncc(CC(=O)Nc2ccccc2C)s1
GI50 (786-0): > 100 µM (inactive)
GI50 (A498): > 100 µM (inactive)
GI50 (A549): 58.2 µM (inactive)
GI50 (ACHN): 83.8 µM (inactive)
GI50 (CAKI-1): > 100 µM (inactive)
GI50 (CCRF-CEM): 82.6 µM (inactive)
GI50 (COLO 205): > 100 µM (inactive)
GI50 (DU-145): > 100 µM (inactive)
GI50 (EKVX): > 100 µM (inactive)
GI50 (HCC 2998): 91 µM (inactive)
GI50 (HCT-116): > 100 µM (inactive)
GI50 (HCT-15): > 100 µM
GI50 (HL-60): 42.6 µM (inactive)
GI50 (HOP-62): > 100 µM (inactive)
GI50 (HOP-92): 67.6 µM (inactive)
GI50 (HT-29): 33.7 µM (inactive)
GI50 (Hs-578T): 45.6 µM (inactive)
GI50 (IGROV-1): > 100 µM (inactive)
GI50 (K562): 43.6 µM (inactive)
GI50 (KM12): 74 µM (inactive)
GI50 (LOX IMVI): > 100 µM (inactive)
GI50 (M14): > 100 µM (inactive)
GI50 (MCF7): 82.2 µM (inactive)
GI50 (MDA-MB-231): > 100 µM (inactive)
GI50 (MDA-MB-435): > 100 µM (inactive)
GI50 (MDA-N): > 100 µM (inactive)
GI50 (MOLT-4): 51.5 µM (inactive)
GI50 (Malme-3M): > 100 µM (inactive)
GI50 (NCI-H226): 11.2 µM (inactive)
GI50 (NCI-H23): > 100 µM (inactive)
GI50 (NCI-H460): 29.1 µM (inactive)
GI50 (NCI-H522): 63.8 µM (inactive)
GI50 (NCI/ADR-RES): 45 µM (inactive)
GI50 (OVCAR-3): 43.7 µM (inactive)
GI50 (OVCAR-4): > 100 µM (inactive)
GI50 (OVCAR-5): > 100 µM (inactive)
GI50 (OVCAR-8): 71.6 µM (inactive)
GI50 (PC-3): 44.9 µM (inactive)
GI50 (RPMI-8226): 36.5 µM (inactive)
GI50 (RXF 393): > 100 µM (inactive)
GI50 (SF-268): 88.5 µM (inactive)
GI50 (SF-295): 64.7 µM (inactive)
GI50 (SF-539): > 100 µM (inactive)
GI50 (SK-MEL-28): > 100 µM (inactive)
GI50 (SK-MEL-2): > 100 µM (inactive)
GI50 (SK-MEL-5): 46.5 µM (inactive)
GI50 (SK-OV-3): > 100 µM (inactive)
GI50 (SN12C): > 100 µM (inactive)
GI50 (SNB-19): > 100 µM (inactive)
GI50 (SNB-75): 28.4 µM (inactive)
GI50 (SR): 38.2 µM (inactive)
GI50 (SW-620): > 100 µM (inactive)
GI50 (T47D): 45.3 µM (inactive)
GI50 (TK-10): 75.5 µM (inactive)
GI50 (U-251): 60.5 µM (inactive)
GI50 (UACC-257): > 100 µM (inactive)
GI50 (UACC-62): 83.6 µM (inactive)
GI50 (UO-31): 38.7 µM (inactive)

COc1cccc(C(C#N)NNC(=O)c2c(Cl)c(Cl)c(Cl)c(Cl)c2-c2nc3cc(C(=O)c4ccccc4)ccc3[nH]2)c1O (stereo not given)
GI50 (786-0): 4.06 µM (inactive)
GI50 (A498): 2.05 µM (inactive)
GI50 (A549): 4.06 µM (inactive)
GI50 (ACHN): 6.44 µM (inactive)
GI50 (BT-549): 6.37 µM (inactive)
GI50 (CAKI-1): 6.25 µM (inactive)
GI50 (CCRF-CEM): 3.2 µM (inactive)
GI50 (COLO 205): 3.24 µM (inactive)
GI50 (DU-145): 6.4 µM (inactive)
GI50 (EKVX): 14.3 µM (inactive)
GI50 (HCT-116): 4 µM (inactive)
GI50 (HCT-15): 4.06 µM
GI50 (HL-60): 3.59 µM (inactive)
GI50 (HOP-62): 2.03 µM (inactive)
GI50 (HOP-92): 9.2 µM (inactive)
GI50 (HT-29): 4.91 µM (inactive)
GI50 (IGROV-1): 5.77 µM (inactive)
GI50 (K562): 3.27 µM (inactive)
GI50 (KM12): 3.64 µM (inactive)
GI50 (LOX IMVI): 5.19 µM (inactive)
GI50 (M14): 3.66 µM (inactive)
GI50 (MCF7): 3.22 µM (inactive)
GI50 (MDA-MB-231): 4.15 µM (inactive)
GI50 (MDA-MB-435): 1.81 µM (inactive)
GI50 (MDA-N): 1.68 µM (inactive)
GI50 (MOLT-4): 2.78 µM (inactive)
GI50 (NCI-H226): 3 µM (inactive)
GI50 (NCI-H23): 5.74 µM (inactive)
GI50 (NCI/ADR-RES): 2.54 µM (inactive)
GI50 (OVCAR-3): 2.2 µM (inactive)
GI50 (OVCAR-4): 3.09 µM (inactive)
GI50 (OVCAR-5): 18.6 µM (inactive)
GI50 (OVCAR-8): 11.3 µM (inactive)
GI50 (PC-3): 3.62 µM (inactive)
GI50 (RPMI-8226): 3.55 µM (inactive)
GI50 (RXF 393): 2.17 µM (inactive)
GI50 (SF-295): 1.74 µM (inactive)
GI50 (SF-539): 2.63 µM (inactive)
GI50 (SK-MEL-28): 9.73 µM (inactive)
GI50 (SK-MEL-2): 4.05 µM (inactive)
GI50 (SK-MEL-5): 2.71 µM (inactive)
GI50 (SK-OV-3): 3.03 µM (inactive)
GI50 (SN12C): 2.7 µM (inactive)
GI50 (SNB-19): 4.63 µM (inactive)
GI50 (SNB-75): 2 µM (inactive)
GI50 (SR): 2.91 µM (inactive)
GI50 (SW-620): 6.01 µM (inactive)
GI50 (T47D): 2.79 µM (inactive)
GI50 (TK-10): 7.71 µM (inactive)
GI50 (U-251): 4.44 µM (inactive)
GI50 (UACC-257): 9.02 µM (inactive)
GI50 (UO-31): 6.84 µM (inactive)

CC12C(=O)CC(CC1=O)C2(C)C
GI50 (786-0): > 100 µM (inactive)
GI50 (A549): > 100 µM (inactive)
GI50 (ACHN): > 100 µM (inactive)
GI50 (BT-549): > 100 µM (inactive)
GI50 (CAKI-1): > 100 µM (inactive)
GI50 (CCRF-CEM): > 100 µM (inactive)
GI50 (COLO 205): > 100 µM (inactive)
GI50 (DU-145): > 100 µM (inactive)
GI50 (EKVX): > 100 µM (inactive)
GI50 (HCT-116): > 100 µM (inactive)
GI50 (HCT-15): > 100 µM
GI50 (HL-60): > 100 µM (inactive)
GI50 (HOP-62): > 100 µM (inactive)
GI50 (HOP-92): > 100 µM (inactive)
GI50 (HT-29): > 100 µM (inactive)
GI50 (Hs-578T): > 100 µM (inactive)
GI50 (IGROV-1): > 100 µM (inactive)
GI50 (K562): > 100 µM (inactive)
GI50 (KM12): > 100 µM (inactive)
GI50 (LOX IMVI): > 100 µM (inactive)
GI50 (M14): > 100 µM (inactive)
GI50 (MCF7): > 100 µM (inactive)
GI50 (MDA-N): > 100 µM (inactive)
GI50 (MOLT-4): > 100 µM (inactive)
GI50 (Malme-3M): > 100 µM (inactive)
GI50 (NCI-H226): > 100 µM (inactive)
GI50 (NCI-H460): > 100 µM (inactive)
GI50 (NCI-H522): > 100 µM (inactive)
GI50 (NCI/ADR-RES): > 100 µM (inactive)
GI50 (OVCAR-3): > 100 µM (inactive)
GI50 (OVCAR-4): > 100 µM (inactive)
GI50 (OVCAR-5): > 100 µM (inactive)
GI50 (OVCAR-8): > 100 µM (inactive)
GI50 (PC-3): > 100 µM (inactive)
GI50 (RPMI-8226): > 100 µM (inactive)
GI50 (SF-268): > 100 µM (inactive)
GI50 (SF-295): > 100 µM (inactive)
GI50 (SK-MEL-28): > 100 µM (inactive)
GI50 (SK-MEL-2): > 100 µM (inactive)
GI50 (SK-MEL-5): > 100 µM (inactive)
GI50 (SK-OV-3): > 100 µM (inactive)
GI50 (SN12C): > 100 µM (inactive)
GI50 (SNB-19): > 100 µM (inactive)
GI50 (SNB-75): > 100 µM (inactive)
GI50 (SW-620): > 100 µM (inactive)
GI50 (T47D): > 100 µM (inactive)
GI50 (TK-10): > 100 µM (inactive)
GI50 (UACC-257): > 100 µM (inactive)
GI50 (UACC-62): > 100 µM (inactive)
GI50 (UO-31): > 100 µM (inactive)
